Data on 3 compounds can be found in US20160228584A1, “18F -GLUTATHIONE CONJUGATE AS A PET TRACER FOR IMAGING TUMORS OR NEUROLOGICAL DISORDERS THAT OVEREXPRESS L-PGDS ENZYME” (National Tsing Hua University, priority 2015, published 2016).

One data set deals with T1, GST-α (Homo sapiens, UniProt P08263).
T1 construct: purchased Pro SpecTany Techno Gene Ltd ENZ-469
T1 sequence (P08263 1-222): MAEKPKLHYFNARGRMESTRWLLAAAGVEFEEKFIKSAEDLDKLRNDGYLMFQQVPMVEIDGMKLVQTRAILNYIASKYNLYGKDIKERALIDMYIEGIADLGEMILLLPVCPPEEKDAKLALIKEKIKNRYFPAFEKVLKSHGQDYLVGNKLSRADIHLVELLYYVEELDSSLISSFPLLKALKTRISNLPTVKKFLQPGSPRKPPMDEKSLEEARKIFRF
Nature of the data set: Radioligand enzymatic binding assay (gel filtration HPLC). To be noted: GSTA1-1. As to the method: (§1) The flow rate was 1 mL/min.
(§2) L-PGDS catalyzes the […] of prostaglandin H2 (PGH2), a metabolite (also known as a prostanoid) derived from arachidonic acid (AA) through oxidation and reduction via the catalysis of COX enzymes. For comparison, mPGES-1, the counterpart of L-PGDS that catalyzes the formation of PGE2 from COX-derived PGH2, was also used in this study. […] Thus, GST-P1 and GST-A1-1 enzymes were only used as negative controls.
On the technique in general: Size exclusion chromatography separates by hydrodynamic size, large species first.

A further data set deals with GST-π (Homo sapiens, UniProt P09211). Described as above. To be noted: GSTP1. As to the method:
as §1, §2

In a further data set the target is T2, m-PGES (Homo sapiens, UniProt O14684).
T2 construct: purchased Cayman Chemical Inc
T2 sequence (O14684 1-152): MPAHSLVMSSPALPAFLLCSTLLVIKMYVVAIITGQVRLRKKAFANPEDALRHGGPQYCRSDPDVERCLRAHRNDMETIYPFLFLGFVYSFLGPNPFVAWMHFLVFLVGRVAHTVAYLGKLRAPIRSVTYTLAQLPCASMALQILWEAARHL
Described as above. The conditions noted are these: mPGES-1. As to the method: as §1, §2

In another data set the test system is C6 glioma. Kind of data set: Cellular uptake of radiotracer in tumor cells. The data set is classed as cell-based. As to the method:
The time point of addition of radio tracer was staggered such that every group could be harvested concurrently. At various times of 0.25, 0.5, 1.5, 3 and 5 h, the collection of the medium was progressing. During harvesting, the radioactive medium was collected from each of the wells, followed by rinsing with PBS […] twice. The medium and rinses (1.5 mL) were combined for counting; the counts were treated as extracellular radioactivity. Subsequently, the cells were lysed with 0.25% trypsin-EDTA ([…]) and the wells were rinsed with PBS twice. Both cells and rinses (1.5 mL) were combined for counting; the counts were treated as intracellular radioactivity. Radioactivity was measured using a scintillation gamma counter (Packard 5000, Packard Instrument Co. laboratory) and decay was corrected. Samples were performed triplicated at each time point for all uptake studies.
The uptake ratio was calculated according to the following expression:
Uptake ratio(%)=Countintracellular=Countextracellular+Countintracellular)×100%

Data set [1] in a line: Ex vivo analysis of biodistribution. The data set is classed as in vivo. To be noted: rat. An excerpt: The specimens included 1) organ tissues such as brain, liver, spleen, heart, kidney, lung, colon, small bowel, stomach, testes, skull, and muscle, and 2) body fluids such as blood and urine. These specimens were submitted for counting the radioactivity using a solid scintillation gamma counter (Packard 5000, Packard Instrument Co. laboratory). The counting value of each specimen was further divided by the sample weight to give the final expression as percentage of injection dose per sample weight (% ID/g).

A further data set relates to C6 glioma brain tumor. Kind of data set: PET imaging of C6-glioma rat brain tumor. The class given is in vivo. The conditions noted are these: tail vein injection, three cross sections. The method, then: All studies involving animals were conducted in compliance with federal and institutional guidelines. Two weeks before imaging, healthy male SD rats were stereotactically inoculated in the right hemisphere with 1.0×10^5 C6 glioma cells (American Type Tissue Collection).
After C6 glioma cells were injected into the striatum of the SD rats, the animals were placed on heating pad until they have entirely recovered. When the xenografted tumor size has grown to a size of 1-2 mm in diameter, the animals were transferred to the animal facility under control by the research staff every morning. […] Prior to imaging, all rats were affixed with venous and arterial catheters. The in vivo xenograft C6 glioma was imaged 2 weeks after transplantation procedure, until the volume of the tumor reached 3 mm-5 mm in diameter, well-demarcated from normal brain tissue. Regular oral feeding was proceeded after the animals were recovered from anesthesia.
PET scanning experiments were performed within 72 hours of MRI experiment that used to confirm a successful inoculation of tumors by administering [^18F] FBuEA-GS3 via tail vein injection. Both machines of microPET and nanoPET/CT were employed.
Data were collected in list-mode format for 120 minutes. For reconstruction, the dynamic PET acquisition was divided into six 20-min frames over the scanning duration. […]

A further data set deals with T3, L-PGDS (Homo sapiens, UniProt P41222).
T3 construct: purchased Cayman 10006595
T3 sequence (P41222 23-190): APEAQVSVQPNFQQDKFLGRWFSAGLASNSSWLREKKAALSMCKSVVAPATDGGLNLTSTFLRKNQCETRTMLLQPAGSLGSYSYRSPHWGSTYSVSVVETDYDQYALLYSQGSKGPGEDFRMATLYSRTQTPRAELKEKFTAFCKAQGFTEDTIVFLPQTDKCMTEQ
Nature of the data set: Competitive inhibition of the production of PGD2 from PGH2 catalysed by L-PGDS (Cayman kit, EIA readout). The class given is biochemical. The conditions noted are these: 200 μM of each test compound; duplicate; read-out: inhibition of the formation of PGD2 from PGH2.

As to `CCC(CSC[C@@H](NC(=O)CC[C@@H](N)C(=O)O)C(=O)NCC(=O)O)C(=O)c1ccc(OCC(=O)NCCCC[18F])c(Cl)c1Cl` (stereo partly drawn) [[^18F]FBuEA-GS 3, glutathione conjugate of fluorine-18-labeled fluorobutyl ethacrynic amide], the “binding affinity (in words)” value on GST-α is given as “weak binding affinities”; at GST-π, “weak binding affinities”; on m-PGES, “did not show any binding affinity”. Further, the “time to reach steady state of accumulation” value in the data set with C6 glioma (cellular uptake) is “approximately 15 min”. Further, the “radioactivity in the brain” value in data set [1] (brain, 1.0-1.5 mCi injected) was found to be 0.05 % ID/g. Moreover, in data set [1] (fourteen tissue samples), the “distribution of radioactivity (in words)” value is recorded as “mainly localized in the excretory system”. Also, the “PET imaging of brain tumor (in words)” value in the data set on C6 glioma brain tumor is “clear hot spot coinciding to the tumor region detected by MRI imaging”.

Consider `C=C(CC)C(=O)c1ccc(OCC(=O)NCCCC[18F])c(Cl)c1Cl` [[^18F]FbuEA 2, fluorine-18-labeled fluorobutyl ethacrynic amide], for which the “uptake in tumor cells versus normal cells (in words)” value with C6 glioma (tumor cells compared to normal cell) was “lower uptake in tumor cells compared to normal cell”.

A word on the inhibition: it is the change of the read-out against control, counted positive when it falls. With `O=c1ccn([C@@H]2O[C@H](CO)[C@@H](O)[C@H]2O)c(=O)[nH]1` [uridine], on L-PGDS, the inhibition at 200 µM is 5.6 ± 14.3%.
